From patent US12448382B2, “Heterocyclic compounds for mediating tyrosine kinase 2 activity” (GUANGZHOU INNOCARE PHARMA TECH CO., LTD., priority 2019, dated 2025)

Columns and labels:
[1] = target: T1, human recombinant JAK2 protein (Homo sapiens, UniProt O60674); assay: JAK2 Inhibition Assay (HTRF kinase assay); assay type: biochemical; settings: human recombinant JAK2, 2.5 μM ATP substrate solution
T1 construct: purchased Carna Biosciences 08-045
In short: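 Recombinant human JAK2 was preincubated 15 min at room temperature with compound in buffer containing 5 mM MgCl2, 1 mM DTT and 0.01% Brij35. Substrate solution (2.5 μM ATP, 0.25 μM biotinylated TK substrate) was then added for 30 min. Phosphorylation was detected by HTRF (665/620 nm ratio; no-enzyme = 100% inhibition), and IC50 was fitted from an 8-point, 4-fold series.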

[2] = target: T2, human recombinant TYK2 protein (Homo sapiens, UniProt P29597); assay: TYK2 Inhibition Assay (HTRF kinase assay); assay type: biochemical; settings: human recombinant TYK2, 11.25 μM ATP substrate solution
T2 construct: purchased Carna Biosciences 08-147
T2 sequence (P29597 871-1187 limits assumed): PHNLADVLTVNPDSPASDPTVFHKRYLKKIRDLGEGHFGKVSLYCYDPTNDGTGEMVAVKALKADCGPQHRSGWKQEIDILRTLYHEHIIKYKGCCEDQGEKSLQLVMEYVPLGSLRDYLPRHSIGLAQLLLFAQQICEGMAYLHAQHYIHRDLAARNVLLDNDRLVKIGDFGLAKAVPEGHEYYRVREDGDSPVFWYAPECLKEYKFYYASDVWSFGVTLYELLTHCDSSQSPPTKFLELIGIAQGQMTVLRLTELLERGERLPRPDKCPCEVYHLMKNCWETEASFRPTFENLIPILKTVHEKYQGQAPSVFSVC
In short: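 Recombinant human TYK2 was pre-incubated 15 min at room temperature with compound, then reacted for 40 min with biotinylated tyrosine-kinase substrate and ATP (substrate solution 11.25 μM ATP, 0.5 μM substrate; 5 mM MgCl2, 0.01% Brij35). Phosphorylation was read by HTRF 665/620 ratio, normalised to no-enzyme and no-compound controls, and IC50 was fitted from 8 4-fold dilutions.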

[3] = tested on: IL-12-induced IFN-γ secretion in NK92 cells; assay: Inhibition of IL-12-induced IFN-γ Secretion in NK92 Cells (ELISA); assay type: cell-based, human; settings: Homo sapiens, 24 hours incubation, 8 concentration points, read-out: IC50 (NK92_IL12/IFNγ)
In short: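 NK92 cells (100,000/well, IL-2-free medium) rested overnight, then treated with compound plus IL-12 for 24 h at 37 °C. Secreted IFN-γ measured in supernatant by ELISA. Inhibition normalized to unstimulated and IL-12/0.2% DMSO controls; IC50 fitted from 8 concentrations.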

T1 sequence (O60674 826-1132 limits assumed): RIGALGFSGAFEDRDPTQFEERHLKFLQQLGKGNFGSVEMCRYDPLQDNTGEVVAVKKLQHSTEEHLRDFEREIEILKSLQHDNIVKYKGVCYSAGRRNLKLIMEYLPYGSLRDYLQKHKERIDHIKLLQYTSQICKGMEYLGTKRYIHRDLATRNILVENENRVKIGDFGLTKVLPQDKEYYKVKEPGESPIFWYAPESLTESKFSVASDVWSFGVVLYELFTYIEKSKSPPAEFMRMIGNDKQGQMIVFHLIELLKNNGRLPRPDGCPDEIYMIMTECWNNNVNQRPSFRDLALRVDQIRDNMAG

Compound	IC50 [1] [nM]	IC50 [2] [nM]	IC50 [3] [nM]
Cn1cc(Nc2ncc(Cl)c(N3C[C@@]4(C)CN(S(C)(=O)=O)C[C@@]4(C)C3)n2)cn1 [Compound 34, 5-chloro-4-((3aR,6aS)-3a,6a-dimethyl-5-(methylsulfonyl)hexahydropyrrolo[3,4-c]pyrrol-2(1H)-yl)-N-(1-methyl-1H-pyrazol-4-yl)pyrimidin-2-amine]	1.8	0.6	287
Cn1cc(Nc2ncc(Cl)c(N3C[C@]4(C)CN(C(=O)CO)C[C@]4(C)C3)n2)cn1 [Compound 35, 1-((3aR,6aS)-5-(5-chloro-2-((1-methyl-1H-pyrazol-4-yl)amino)pyrimidin-4-yl)-3a,6a-dimethylhexahydropyrrolo[3,4-c]pyrrol-2(1H)-yl)-2-hydroxyethan-1-one]	3.3	0.6	453
CCC(=O)N1C[C@@]2(C)CN(c3nc(Nc4cnn(C)c4)ncc3Cl)C[C@@]2(C)C1 [Compound 36, 1-((3aR.,6aS)-5-(5-chloro-2-((1-methyl-1H-pyrazol-4-yl)amino)pyrimidin-4-yl)-3a,6a-dimethylhexahydropyrrolo[3,4-c]pyrrol-2(1H)-yl)propan-1-one]	4.1	1.8	592
COCC(=O)N1C[C@@]2(C)CN(c3nc(Nc4cnn(C)c4)ncc3Cl)C[C@@]2(C)C1 [Compound 37, 1-((3aR,6aS)-5-(5-chloro-2-((1-methyl-1H-pyrazol-4-yl)amino)pyrimidin-4-yl)-3a,6a-dimethylhexahydropyrrolo[3,4-c]pyrrol-2(1H)-yl)-2-methoxyethan-1-one]	15	12	2100
Cn1cc(Nc2ncc(Cl)c(N3C[C@]4(C)CN(C(=O)C5COC5)C[C@]4(C)C3)n2)cn1 [Compound 39, ((3aR,6aS)-5-(5-chloro-2-((1-methyl-1H-pyrazol-4-yl)amino)pyrimidin-4-yl)-3a,6a-dimethylhexahydropyrrolo[3,4-c]pyrrol-2(1H)-yl)(oxetan-3-yl)methanone]	11	4.4	919
Cn1cc(Nc2ncc(Cl)c(N3C[C@]4(C)CN(CC(F)(F)F)C[C@]4(C)C3)n2)cn1 [Compound 40, 5-chloro-4-((3aR,6aS)-3a,6a-dimethyl-5-(2,2,2-trifluoroethyl)hexahydropyrrolo[3,4-c]pyrrol-2(1H)-yl)-N-(1-methyl-1H-pyrazol-4-yl)pyrimidin-2-amine]	1.2	0.4	422
CCS(=O)(=O)N1C[C@]2(C)CN(c3nc(Nc4cnn(C)c4)ncc3Cl)C[C@]2(C)C1 [Compound 41, 5-chloro-4-((3aR,6aS)-5-(ethylsulfonyl)-3a,6a-dimethylhexahydropyrrolo[3,4-c]pyrrol-2(1H)-yl)-N-(1-methyl-1H-pyrazol-4-yl)pyrimidin-2-amine]	1.7	1.3	635
Cn1cc(Nc2ncc(Cl)c(N3C[C@]4(C)CN(C(=O)C5(C#N)CC5)C[C@]4(C)C3)n2)cn1 [Compound 42, 1-((3aR,6aS)-5-(5-chloro-2-((1-methyl-1H-pyrazol-4-yl)amino)pyrimidin-4-yl)-3a,6a-dimethyloctahydropyrrolo[3,4-c]pyrrole-2-carbonyl)cyclopropane-1-carbonitrile]	20	5.7	3470
Cn1cc(Nc2ncc(Cl)c(N3C[C@]4(C)CN(C(=O)C5(O)CC5)C[C@]4(C)C3)n2)cn1 [Compound 43, ((3aR,6aS)-5-(5-chloro-2-((1-methyl-1H-pyrazol-4-yl)amino)pyrimidin-4-yl)-3a,6a-dimethylhexahydropyrrolo[3,4-c]pyrrol-2(1H)-yl)(1-hydroxycyclopropyl)methanone]	18	4.5	3390
Cn1cc(Nc2ncc(Cl)c(N3C[C@]4(C)CN(C(=O)C(C)(C)O)C[C@]4(C)C3)n2)cn1 [Compound 44, 1-((3aR,6aS)-5-(5-chloro-2((1-methyl-1H-pyrazol-4-yl)amino)pyrimidin-4-yl)-3a,6a-dimethylhexahydropyrrolo[3,4-c]pyrrol-2(1H)-yl)-2-hydroxy-2-methylpropan-1-one]	20	8.6	3620
Cn1cc(Nc2ncc(Cl)c(N3C[C@]4(C)CN(C(=O)C(C)(C)C#N)C[C@]4(C)C3)n2)cn1 [Compound 45, 3-((3aR,6aS)-5-(5-chloro-2-((1-methyl-1H-pyrazol-4-yl)amino)pyrimidin-4-yl)-3a,6a-dimethylhexahydropyrrolo[3,4-c]pyrrol-2(1H)-yl)-2,2-dimethyl-3-oxopropanenitrile]	19	12	5390
Cn1cc(Nc2ncc(Cl)c(N3C[C@]4(C)CN(C(=O)c5ccccn5)C[C@]4(C)C3)n2)cn1 [Compound 47, ((3aR,6aS)-5-(5-chloro-2-((1-methyl-1H-pyrazol-4-yl)amino)pyrimidin-4-yl)-3a,6a-dimethylhexahydropyrrolo[3,4-c]pyrrol-2(1H)-yl)(pyridin-2-yl)methanone]	51	13	7920
Cn1cc(Nc2ncc(Cl)c(N3C[C@]4(C)CN(C(=O)CC(F)(F)F)C[C@]4(C)C3)n2)cn1 [Compound 48, 1-((3aR,6aS)-5-(5-chloro-2-((1-methyl-1H-pyrazol-4-yl)amino)pyrimidin-4-yl)-3a,6a-dimethylhexahydropyrrolo[3,4-c]pyrrol-2(1H)-yl)-3,3,3-trifluoropropan-1-one]	2.5	0.7	709
Cn1cc(Nc2ncc(Cl)c(N3C[C@]4(C)CN(Cc5ccno5)C[C@]4(C)C3)n2)cn1 [Compound 50, 5-chloro-4-((3aR,6aS)-5-(isoxazol-5-ylmethyl)-3a,6a-dimethylhexahydropyrrolo[3,4-c]pyrrol-2(1H)-yl)-N(1-methyl-1H-pyrazol-4-yl)pyrimidin-2-amine]	0.1	0.3	43
CNC(=O)c1ccc(Nc2ncc(Cl)c(N3C[C@]4(C)CN(C(=O)C5CC5)C[C@]4(C)C3)n2)cn1 [Compound 51, 5-((5-chloro-4-((3aR,6aS)-5-(cyclopropanecarbonyl)-3a,6a-dimethylhexahydropyrrolo[3,4-c]pyrrol-2(1H)-yl)pyrimidin-2-yl)amino)-N-methylpicolinamide]	7.3	2.7	597
Cn1cc(Nc2ncc(Cl)c(N3C[C@]4(C)CN(C(=O)CC(F)F)C[C@]4(C)C3)n2)cn1 [Compound 52]	1.8	0.9	289
C[C@@]12CN(C(=O)C3CC3)C[C@]1(C)CN(c1nc(Nc3ccc(C(=O)N4CCOCC4)nc3)ncc1Cl)C2 [Compound 53, ((3aR,6aS)-5-(5-chloro-2-((6-(morpholine-4-carbonyl)pyridin-3-yl)amino)pyrimidin-4-yl)-3a,6a-dimethylhexahydropyrrolo[3,4-c]pyrrol-2(1H)-yl)(cyclopropyl)methanone]	3.8	3.2	918
Cn1cc(Nc2ncc(Cl)c(N3C[C@]4(C)CN(c5ccccn5)C[C@]4(C)C3)n2)cn1 [Compound 54, 5-chloro-4-((3aR,6aS)-3a,6a-dimethyl-5-(pyridin-2-yl)hexahydropyrrolo[3,4-c]pyrrol-2(1H)-yl)-N-(1-methyl-1H-pyrazol-4-yl)pyrimidin-2-amine]	0.9	0.2	934
Cc1cnc(Nc2cnn(C)c2)nc1N1C[C@@]2(C)CN(S(C)(=O)=O)C[C@@]2(C)C1 [Compound 55, 4-((3aR,6aS)-3a,6a-dimethyl-5-(methylsulfonyl)hexahydropyrrolo[3,4-c]pyrrol-2(1H)-yl)-5-methyl-N-(1-methyl-1H-pyrazol-4-yl)pyrimidin-2-amine]	3.7	1.7	413
Cc1cnc(Nc2cnn(C)c2)nc1N1C[C@]2(C)CN(C(=O)[C@@H]3CC3(F)F)C[C@]2(C)C1 [Compound 56, ((S)-2,2-difluorocyclopropyl)((3aR,6aS)-3a,6a-dimethyl-5-(5-methyl-2-((1-methyl-1H-pyrazol-4-yl)amino)pyrimidin-4-yl)hexahydropyrrolo[3,4-c]pyrrol-2(1H)-yl)methanone]	2.5	1.7	505
CN1CCN(C(=O)c2ccc(Nc3ncc(Cl)c(N4C[C@]5(C)CN(C(=O)C6CC6)C[C@]5(C)C4)n3)cn2)CC1 [Compound 59, ((3aR,6aS)-5-(5-chloro-2-((6-(4-rnethylpiperazine-1-carbonyl)pyridin-3-yl)amino)pyrimidin-4-yl)-3a,6a-dimethylhexahydropyrrolo[3,4-c]pyrrol-2(1H)-yl)(cyclopropyl)methanone]	5.1	5	2390
